# Patent US7235263B2, “Processes for controlling microbial organic compound production” (Kimberly-Clark Worldwide, Inc., priority 2001, dated 2007)
# Assays:
# [1] = system: interleukin-1 alpha (IL-1a); test: IL-1a release by EPIOCULAR skin culture challenged with sample; assay type: cell-based, human; details: Table 5, 6 hours
# Description: In order to evaluate the amount of skin irritation by various samples prepared in the Examples, a human skin culture was selected to model the response of the human epidermis to treated and untreated bacterial metabolized urine:TSB mixture. The tissue model selected was an EPIOCULAR Tissue Model (OCL-200 propagated without hydrocortisone), and was purchased from MatTek Corporation (Ashland, Mass.). This model consists of normal, human-derived epidermal keratinocytes, which have been cultured to form a stratified, squamous epithelium similar to that found in the cornea. The epidermal cells, which are cultured on specially prepared cell culture inserts using a serum free medium, differentiate to form a multi-layered structures which closely parallel the corneal epithelium. Experiments using this skin culture were conducted in six parallel wells. Each well contained one milliliter of pre-warmed media that was the same as the model skin culture media. The plates were then incubated in a 37° C., 5% carbon dioxide atmosphere for thirty minutes. […] The response of the skin culture to test the compositions/control and the insult solution is determined by measuring the amount of interleukin-1 alpha (IL-1a) and/or interleukin-8 (IL-8). IL-1a and IL-8 were quantified using an Interleukin-1 alpha or Interleukin-8 Quantikine Kit available from R&D Systems (Minneapolis, Minn.).
# Proteus mirabilis = test: Growth of aerobically cultivated Proteus mirabilis in urine:TSB, microtiter serial dilution, optical density; assay type: cell-based; details: for optical density (bacterial cell growth): 48 hours at 37° C., aerobic, listed as 7 Hr.
# Method: Proteus mirabilis was cultured in TSB as described in Example 1 and transferred to a urine:TSB mixture (9:1) and incubated under aerobic conditions as described in Example 1. […] In a 96-well microtiter plate with a lid, 150 microliters of each 10% solution was introduced into the first and second columns of the wells. Using a multi-channel pipette, 150 microliters of urine:TSB mixture was introduced into each well except the first column. Beginning at the second column of wells, serial dilutions were made by removing 150 microliters from the second column and transferring it to the third column. The mixture was mixed by pipetting up and down three times. The serial dilutions continued across each column of the plate and, after column 11, 150 microliters was discarded leaving column 12 as the 0% solution. Each well was then inoculated with 1 microliter of Proteus mirabilis, except for the negative control rows. One to three drops of anti-fogging solution was place on the plate lids with a cotton applicator, and allowed to air dry. The mixtures were incubated for 48 hours at 37° C. under aerobic conditions. After incubation of the samples, each was analyzed for bacterial cell growth utilizing the optical density procedure as set forth in Example 1.
# E. coli (ATCC 8739) [2] = test: Bacterial yield of facultatively grown E. coli in urine:TSB; assay type: cell-based; details: Table 6, facultative E. coli in urine:TSB
# Method: Proteus mirabilis (ATCC 29906) were recovered from frozen state by growing the appropriate bacterial coated MicroBank Bead (Pro Lab, Austin Tex.) in 10 mL trypticase soy broth (TSB, Difco, Ann Arbor, Mich.) in a 15 mL sterile loosely tightened screw capped conical tube overnight at 37° C. The tube was held stationary. (E. coli (ATCC 8739), utilized in Example 6 herein, was recovered using the same procedure described herein for Proteus mirabilis). Upon observation of turbidity, the bacterial suspension was checked for purity by isolation plate and Gram stain. Once determined that the isolate was Proteus mirabilis (or E. coli in Example 6), a colony from the isolation plate was transferred to 10 mL of TSB in a 15 mL sterile screw capped conical tube and incubated overnight at 37° C. under facultative conditions. Samples of bacterial suspension resulting from this overnight TSB culture were used to initiate all experiments utilizing Proteus mirabilis bacteria (or E. coli in Example 6).
# The four samples were prepared identically to the four samples in Example 5 with the exception that facultatively grown E. coli was utilized as the bacteria in place of the Proteus mirabilis bacteria. The process for growing facultatively grown E. coli is set forth in Example 1.
# After incubation, each sample was analyzed for EPIOCULAR viability and bacterial cell count as set forth in Example 1. […]
# E. coli (ATCC 8739) [3] = test: Ammonia in urine:TSB with facultatively grown E. coli; assay type: cell-based; details: Table 6, facultative E. coli
# Method: Upon completion of the respective incubation periods of the samples, optical density measurements of each sample were taken as described above and ammonia production of the growth solutions was measured using an ammonia combination probe (Beckman, Fullerton, Calif.) by record mV using an Orion pH meter (Orion, Boston, Mass.). Orion ammonia standards (Orion) were used to calibrate the instrument. The four samples were prepared identically to the four samples in Example 5 with the exception that facultatively grown E. coli was utilized as the bacteria in place of the Proteus mirabilis bacteria. The process for growing facultatively grown E. coli is set forth in Example 1.
substance,measurement,setting,value
mannitol peroxide,IL-1a,[1]; facultative Proteus mirabilis grown with 5% mannitol peroxide,48.12 ± 8.93 pg/mL
same,IL-1a,[1]; facultative Proteus mirabilis grown with 10% mannitol peroxide,15.26 ± 12.80 pg/mL
same,optical density (bacterial cell growth),Proteus mirabilis; 0.0097% in urine:TSB,0.98
same,optical density (bacterial cell growth),Proteus mirabilis; 0.0195% in urine:TSB,0.98
same,optical density (bacterial cell growth),Proteus mirabilis; 0.0391% in urine:TSB,0.95
same,optical density (bacterial cell growth),Proteus mirabilis; 0.0785% in urine:TSB,0.98
same,optical density (bacterial cell growth),Proteus mirabilis; 0.156% in urine:TSB,1.00
same,optical density (bacterial cell growth),Proteus mirabilis; 0.313% in urine:TSB,0.96
same,optical density (bacterial cell growth),Proteus mirabilis; 0.625% in urine:TSB,0.99
same,optical density (bacterial cell growth),Proteus mirabilis; 1.25% in urine:TSB,0.98
same,optical density (bacterial cell growth),Proteus mirabilis; 2.5% in urine:TSB,0.97
same,optical density (bacterial cell growth),Proteus mirabilis; 5% in urine:TSB,0.90
same,optical density (bacterial cell growth),Proteus mirabilis; 10% in urine:TSB,0.82
same,effect on the growth of the bacteria,"Proteus mirabilis; heated at least about 7 hours at about 97° C. during synthesis, even at elevated concentrations",little effect on the growth of the bacteria
same,Bacterial Yields,E. coli (ATCC 8739) [2]; 5% MP,2.14E+9 CFU/mL
same,Bacterial Yields,E. coli (ATCC 8739) [2]; 10% MP,4.98E+9 CFU/mL
same,Ammonia,E. coli (ATCC 8739) [3]; 5% MP,12.46 ppm
same,Ammonia,E. coli (ATCC 8739) [3]; 10% MP,14.04 ppm
